From publication PMC9501899 (Journal of the American Chemical Society, 2022)
Where two headings read alike, the source gives them in different places.

Experiments:
[1] = system: LRRK1, VPS35, PPM1H; test: TMT-based global proteomic profiling in WT MEFs, LRRK2-related proteins; format: cell-based, mouse; settings: 300 nM, 4 h
[2] = Pharmacokinetic (PK) study in mice; format: in vivo, C57BL/6 male mice; settings: for bioavailability: C57BL/6, plasma, mouse
Procedure: Data are mean (±standard deviation (SD)) from three mice at each time point. […]
PK profiling was outsourced and undertaken by Shanghai ChemPartner Co., Ltd. All animal experiments performed were conducted in compliance with the Institutional Animal Care and Use Committee (IACUC) and the Office of Laboratory Animal Welfare (OLAW) guidelines. Six to eight week old C57BL/6 male mice purchased from Jihui Laboratory Animal Co., Ltd. were used in the study. […] The animals were restrained manually at the designated time points (0.083, 0.25, 0.5, 1, 2, 4, and 8 h); approximately, 110 μL of blood sample was collected via facial vein into K2EDTA tubes. Three mice per time point were used, resulting in a total of 21 mice for each administration route. The blood sample was put on ice and centrifuged at 2000g for 5 min to obtain the plasma sample within 15 min. The plasma, brain, and CSF samples were stored at approximately −70 °C until analysis. A 30 μL aliquot of plasma was added with 200 μL of internal standard (Glipozode, 40 ng/mL) in MeCN with 5% Citri. The mixture was then vortexed for 1 min and then centrifuged for 10 min at 5800 rpm. The supernatant (100 μL) was transferred to a new plate. The solution (1 μL) was injected into LC-MS/MS. LC-MS/MS instrument used: SCIEX LC-MS/MS-49 (Triple Quad 6500+). Data were analyzed by WinNonLin and Microsoft Excel.

[3] = Mouse liver microsome stability; format: in vitro ADME; settings: liver microsomes
Procedure: Testing compound (1.5 μL) or reference compound (500 μM in 5% DMSO and 95% acetonitrile) was mixed with 18.75 μL of 20 mg/mL liver microsome (Corning) and 479.75 μL of potassium phosphate buffer (0.1 M potassium phosphate buffer, 1 mM EDTA, pH 7.4). The reaction was started by mixing 30 μL of the above mixture (prewarmed to 37 °C) with 15 μL of 6 mM NADPH stock solution (prewarmed to 37 °C). After incubating for 5, 15, 30, or 45 min, 135 μL of acetonitrile containing internal standard was added to stop the reaction. For 0 min, the compound and microsome mixture were mixed with acetonitrile first before adding NADPH. After quenching, the reaction mixture was centrifuged, and the supernatant was taken and diluted for LC-MS analysis.

[4] = target: T1, LRRK2-NanoLuc (Homo sapiens, UniProt Q5S007); test: NanoBRET binary LRRK2 binding in HEK293 lysate; settings: compound alone, lysate of HEK293 cells, LRRK2 tracer
T1 construct: host or cells: HEK293
Procedure: In the maximum signal control samples (DMSO control), DMSO was added instead of testing compounds.

[5] = system: LRRK2; test: LRRK2 degradation in multiple cell lines (summary); format: cell-based
Excerpt: Leucine-rich repeat kinase 2 (LRRK2) is one of the most promising targets for Parkinson’s disease.

[6] = Caco-2 cell permeability; format: in vitro ADME; settings: human
Procedure: Caco-2 cells with transepithelial electrical resistance (TEER) (TEER = (resistance sample – resistance blank) × effective membrane area) = 450 ± 19 Ω cm^2were used for the experiment. Compounds were dissolved in the appropriate buffer (10 mM DMSO stock solutions were diluted with HBSS buffer to a final concentration of 10 μM testing compound and 0.4% DMSO, Lucifer Yellow was introduced in the apical side buffer to test the intactness of the monocell layer) and was applied to the apical or basolateral donor side for measuring A–B or B–A permeability (two replicates), respectively. The apical and basolateral plates were prewarmed to 37 °C before placing the apical plate onto the basolateral plate. After incubating at 37 °C for 90 min, the apical plate and basolateral plate were separated, and the donor or receiver samples were analyzed with UPLC-MS/MS.

[7] = male, C57BL/6, IP 30 mg/kg, mouse plasma
[8] = male, C57BL/6, IV 5 mg/kg, mouse plasma
[9] = male, C57BL/6, PO 30 mg/kg, mouse plasma

T1 sequence (Q5S007 whole entry): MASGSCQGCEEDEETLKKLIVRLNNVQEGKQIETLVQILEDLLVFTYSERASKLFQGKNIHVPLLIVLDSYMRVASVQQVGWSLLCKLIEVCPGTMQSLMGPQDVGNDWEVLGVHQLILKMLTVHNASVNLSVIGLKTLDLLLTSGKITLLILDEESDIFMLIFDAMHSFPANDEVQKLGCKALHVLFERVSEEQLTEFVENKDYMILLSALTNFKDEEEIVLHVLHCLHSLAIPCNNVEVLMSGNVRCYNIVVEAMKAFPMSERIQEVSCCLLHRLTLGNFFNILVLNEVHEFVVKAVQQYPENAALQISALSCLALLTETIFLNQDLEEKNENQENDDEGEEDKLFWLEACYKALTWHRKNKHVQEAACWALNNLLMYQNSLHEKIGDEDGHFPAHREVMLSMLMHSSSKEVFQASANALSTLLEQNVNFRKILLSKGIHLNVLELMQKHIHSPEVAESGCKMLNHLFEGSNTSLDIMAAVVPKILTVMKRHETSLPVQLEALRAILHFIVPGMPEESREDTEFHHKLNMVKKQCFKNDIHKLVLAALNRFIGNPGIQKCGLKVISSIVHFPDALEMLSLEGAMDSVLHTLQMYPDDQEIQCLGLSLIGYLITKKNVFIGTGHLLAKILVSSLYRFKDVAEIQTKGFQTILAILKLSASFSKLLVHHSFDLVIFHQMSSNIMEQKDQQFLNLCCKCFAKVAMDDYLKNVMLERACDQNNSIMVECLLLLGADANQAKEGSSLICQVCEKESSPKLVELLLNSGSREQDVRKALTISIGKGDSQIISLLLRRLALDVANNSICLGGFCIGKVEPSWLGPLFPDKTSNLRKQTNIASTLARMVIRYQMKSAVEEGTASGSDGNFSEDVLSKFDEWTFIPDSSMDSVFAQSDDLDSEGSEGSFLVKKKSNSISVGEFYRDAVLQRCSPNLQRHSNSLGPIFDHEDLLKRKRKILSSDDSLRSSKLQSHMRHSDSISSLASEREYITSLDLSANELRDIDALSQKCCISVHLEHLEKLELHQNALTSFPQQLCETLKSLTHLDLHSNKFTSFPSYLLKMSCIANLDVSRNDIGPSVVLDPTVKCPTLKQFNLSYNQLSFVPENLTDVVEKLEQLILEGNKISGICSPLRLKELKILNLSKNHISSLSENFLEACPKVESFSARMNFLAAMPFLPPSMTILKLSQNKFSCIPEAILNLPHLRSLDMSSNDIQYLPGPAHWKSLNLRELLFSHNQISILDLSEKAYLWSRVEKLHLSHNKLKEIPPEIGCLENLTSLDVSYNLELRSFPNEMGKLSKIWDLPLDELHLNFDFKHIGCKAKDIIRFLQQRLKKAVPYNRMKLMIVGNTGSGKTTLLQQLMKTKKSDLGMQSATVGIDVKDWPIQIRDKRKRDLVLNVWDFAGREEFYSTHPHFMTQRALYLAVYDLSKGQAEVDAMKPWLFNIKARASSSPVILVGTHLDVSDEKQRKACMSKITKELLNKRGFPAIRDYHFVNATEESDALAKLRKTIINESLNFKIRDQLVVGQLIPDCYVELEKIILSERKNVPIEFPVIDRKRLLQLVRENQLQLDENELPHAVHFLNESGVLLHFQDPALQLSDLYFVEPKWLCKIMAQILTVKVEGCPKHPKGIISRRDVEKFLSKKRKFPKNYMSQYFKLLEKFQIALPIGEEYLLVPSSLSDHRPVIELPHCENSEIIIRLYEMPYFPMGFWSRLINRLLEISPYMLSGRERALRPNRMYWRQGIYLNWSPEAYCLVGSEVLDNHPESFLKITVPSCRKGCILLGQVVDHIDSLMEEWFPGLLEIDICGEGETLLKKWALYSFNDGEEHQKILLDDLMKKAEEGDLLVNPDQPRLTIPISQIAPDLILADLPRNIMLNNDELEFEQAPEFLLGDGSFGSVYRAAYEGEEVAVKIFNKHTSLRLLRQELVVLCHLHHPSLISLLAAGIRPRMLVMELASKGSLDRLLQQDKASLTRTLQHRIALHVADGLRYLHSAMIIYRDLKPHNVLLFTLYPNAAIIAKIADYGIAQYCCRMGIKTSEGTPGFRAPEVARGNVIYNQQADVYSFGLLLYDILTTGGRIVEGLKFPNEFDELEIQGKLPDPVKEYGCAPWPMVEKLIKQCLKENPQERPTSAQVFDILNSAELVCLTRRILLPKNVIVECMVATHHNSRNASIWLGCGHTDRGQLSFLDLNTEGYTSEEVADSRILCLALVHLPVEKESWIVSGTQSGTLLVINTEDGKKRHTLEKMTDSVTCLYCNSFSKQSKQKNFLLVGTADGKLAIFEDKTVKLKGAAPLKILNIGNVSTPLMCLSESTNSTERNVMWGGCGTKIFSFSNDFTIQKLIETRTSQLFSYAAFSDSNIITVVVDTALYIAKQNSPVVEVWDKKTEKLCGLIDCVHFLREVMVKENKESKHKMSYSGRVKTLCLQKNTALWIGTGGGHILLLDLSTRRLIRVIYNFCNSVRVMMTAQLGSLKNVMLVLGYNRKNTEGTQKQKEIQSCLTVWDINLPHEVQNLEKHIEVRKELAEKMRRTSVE

With `CNc1nc(Nc2ccc(C(=O)N3CCN(C[C@H]4CC[C@H](CSC(C)(C)[C@H](NC(=O)C5(F)CC5)C(=O)N5C[C@H](O)CC5C(=O)NCc5ccc(-c6scnc6C)cc5)CC4)CC3)cc2OC)ncc1Cl` (stereo partly drawn) [XL01126, (2S,4R)-1-((R)-3-((((1R,4R)-4-((4-(4-((5-Chloro-4-(methylamino)pyrimidin-2-yl)amino)-3-methoxybenzoyl)piperazin-1-yl)methyl)cyclohexyl)methyl)thio)-2-(1-fluorocyclopropane-1-carboxamido)-3-methylbutanoyl)-4-hydroxy-N-(4-(4-methylthiazol-5-yl)benzyl)pyrrolidine-2-carboxamide] the “levels of LRRK1, VPS35 and PPM1H (in words)” value [1] was “remained unaffected”, the Kp ([2]; male, C57BL/6, mouse, brain, other: IV, mice, single dose IV, IP or PO, read-out: brain-to-plasma ratio) was under 0.035 and the bioavailability ([2]; male, IP 30 mg/kg, read-out: F) was 29.2%. It also gave a bioavailability ([2]; male, PO 30 mg/kg, read-out: F, oral bioavailability) of 15%, an AUC(0-inf) [2, 7] of 64100 ng·h/mL and an AUC(0-t) [2, 7] of 41400 ng·h/mL. The Cmax [2, 7] was 7700 ng/mL, the Tmax [2, 7] was 0.25 h and the half-life [2, 7] was 5.2 h. The AUC(0-inf) [2, 8] was 24000 ng·h/mL, the AUC(0-t) [2, 8] was 23700 ng·h/mL and the MRT [2, 8] was 2.45 h. For the same molecule, the clearance [2, 8] was 3.47 mL/min/kg, the half-life [2, 8] was 1.52 h and the Vd ([2]; male, C57BL/6, IV 5 mg/kg, mouse plasma, read-out: Vss) was 0.511 L/kg. It also gave an AUC(0-inf) [2, 9] of 109000 ng·h/mL, an AUC(0-t) [2, 9] of 21300 ng·h/mL and a Cmax [2, 9] of 3620 ng/mL. The Tmax [2, 9] was 2 h, the half-life [2, 9] was 21.9 h and the “presence in brain tissues and CSF (in words)” value ([2]; mice, single dose IV, IP or PO) was “detected in brain tissues and CSF”. For the same molecule, the CLint scaled at 1 µM ([3]; pH 7.4) was 1490 mL/min/kg, the half-life at 1 µM ([3]; pH 7.4, read-out: T1/2 in mouse liver microsome) was 3.65 min and the IC50 [4] was 2000 nM. It also gave a DC50 [5] of 14 to 72 nM, a Dmax values [5] of 82 to 90% and a Papp A→B at 90 min, 10 µM ([6]; A–B) of under 0.74 ×10⁻⁶ cm/s. For the same molecule, the Papp B→A at 90 min, 10 µM ([6]; B–A) was under 1.43 ×10⁻⁶ cm/s.
